Where two headings read alike, the source gives them in different places. Where no end group is shown, it is not given here.
Legend:
NaV channels = details: cited from earlier work
human NaV1.7 channel [1] = molecular target: T1, human NaV1.7 channel (Homo sapiens, UniProt Q15858); assay: Cumulative concentration-response, persistent (non-inactivating) current I40ms/Ipeak, NaV1.7; format: cell-based; details: NaV1.7, HEK293, ratio of current at 40 ms to peak current, mean ± SD
human NaV1.7 channel [2] = molecular target: T1, human NaV1.7 channel; assay: Whole-cell current-voltage (I-V) relationship, NaV1.7, standard solution; format: cell-based
Protocol: Data are expressed as mean ± SD.
Whole-cell current-voltage (I-V) recordings were recorded with an EPC 10 USB Heka patch clamp amplifier or an Axon 700B amplifier (Axon Instruments). Currents were filtered (−3 dB, 4-pole Bessel) at 2 kHz and sampled at 50 kHz. […] Leak subtraction was done using a p/4 protocol (4 pulses at a delay of 100 μs). Cell responses were accepted for analysis if the series resistance was ≤ 12 MΩ and was compensated for by ≥ 60%. […] The extracellular solution contained (in mM): 140 NaCl, 5 KCl, 1 MgCl2, 10 Hepes, and 10 D-glucose, adjusted to pH 7.4 with NaOH, whereas the intracellular solution contained (in mM) the following: 140 CsCl, 10 NaCl, 2 10 Hepes, and 5 EGTA adjusted to pH 7.4 with CsOH.
Whole-cell conductance (G) was calculated using the following relation.(1) G=I/(Vm−Vrev) Where, I is the peak current, Vm is the corresponding step voltage and Vrev is the reversal potential (potential where current direction changes).

T1 sequence (Q15858 whole entry): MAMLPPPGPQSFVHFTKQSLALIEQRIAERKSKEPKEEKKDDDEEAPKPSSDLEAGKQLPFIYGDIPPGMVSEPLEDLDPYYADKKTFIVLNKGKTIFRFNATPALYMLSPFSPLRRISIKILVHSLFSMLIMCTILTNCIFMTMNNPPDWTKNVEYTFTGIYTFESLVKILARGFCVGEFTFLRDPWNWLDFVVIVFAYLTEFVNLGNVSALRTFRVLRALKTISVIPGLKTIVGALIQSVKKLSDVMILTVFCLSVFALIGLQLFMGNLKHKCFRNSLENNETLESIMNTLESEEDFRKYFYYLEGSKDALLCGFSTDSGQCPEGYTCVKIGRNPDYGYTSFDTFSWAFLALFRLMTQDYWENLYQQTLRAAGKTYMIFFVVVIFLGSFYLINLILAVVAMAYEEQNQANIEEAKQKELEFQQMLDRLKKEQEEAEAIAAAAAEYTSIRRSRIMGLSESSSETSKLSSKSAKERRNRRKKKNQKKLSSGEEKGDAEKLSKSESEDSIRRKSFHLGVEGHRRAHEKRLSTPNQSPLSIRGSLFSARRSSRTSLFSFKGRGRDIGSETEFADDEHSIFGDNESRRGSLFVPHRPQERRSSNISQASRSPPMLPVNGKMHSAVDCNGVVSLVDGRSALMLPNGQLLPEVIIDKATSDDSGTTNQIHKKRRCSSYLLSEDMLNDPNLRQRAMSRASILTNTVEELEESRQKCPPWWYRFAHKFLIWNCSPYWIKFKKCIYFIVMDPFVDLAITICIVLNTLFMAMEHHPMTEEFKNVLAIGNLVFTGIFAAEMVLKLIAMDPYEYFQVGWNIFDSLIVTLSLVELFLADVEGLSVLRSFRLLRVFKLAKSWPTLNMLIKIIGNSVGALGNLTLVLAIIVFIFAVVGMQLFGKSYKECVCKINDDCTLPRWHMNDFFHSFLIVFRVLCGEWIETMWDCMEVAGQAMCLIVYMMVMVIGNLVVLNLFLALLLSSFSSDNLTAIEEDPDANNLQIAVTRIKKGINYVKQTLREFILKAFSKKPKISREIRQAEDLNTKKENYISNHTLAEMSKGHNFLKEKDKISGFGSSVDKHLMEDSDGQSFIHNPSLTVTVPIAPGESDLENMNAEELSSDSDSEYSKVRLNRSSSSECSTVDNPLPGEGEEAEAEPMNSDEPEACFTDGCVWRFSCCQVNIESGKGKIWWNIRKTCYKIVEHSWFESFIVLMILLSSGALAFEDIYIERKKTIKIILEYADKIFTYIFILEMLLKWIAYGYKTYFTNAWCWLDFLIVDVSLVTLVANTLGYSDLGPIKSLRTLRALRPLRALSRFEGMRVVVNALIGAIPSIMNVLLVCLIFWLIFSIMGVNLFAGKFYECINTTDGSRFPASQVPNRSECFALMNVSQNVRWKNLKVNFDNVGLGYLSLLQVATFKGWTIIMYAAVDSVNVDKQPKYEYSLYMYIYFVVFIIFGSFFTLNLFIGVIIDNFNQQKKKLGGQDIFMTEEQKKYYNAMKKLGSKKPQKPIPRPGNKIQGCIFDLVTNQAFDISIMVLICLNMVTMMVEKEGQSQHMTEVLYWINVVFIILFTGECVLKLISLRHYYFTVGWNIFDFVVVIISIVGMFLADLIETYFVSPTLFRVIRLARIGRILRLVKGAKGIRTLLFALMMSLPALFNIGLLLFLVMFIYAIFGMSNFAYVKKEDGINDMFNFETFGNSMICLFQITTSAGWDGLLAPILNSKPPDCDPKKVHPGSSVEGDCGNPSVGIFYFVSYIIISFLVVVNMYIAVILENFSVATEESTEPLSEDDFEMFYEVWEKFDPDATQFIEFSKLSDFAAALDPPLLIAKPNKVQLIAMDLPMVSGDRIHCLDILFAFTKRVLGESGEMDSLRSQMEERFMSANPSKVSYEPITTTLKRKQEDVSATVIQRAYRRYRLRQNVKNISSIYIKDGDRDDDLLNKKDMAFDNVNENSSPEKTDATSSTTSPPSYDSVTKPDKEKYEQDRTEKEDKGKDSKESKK

Question: With `COc1ccc(C(=O)O[C@H]2CC[C@@]3(C)[C@@H]4CC[C@H]5[C@]6(O)C[C@H](O)[C@@]7(O)[C@@H](CN8C[C@@H](C)CC[C@H]8[C@@]7(C)O)[C@]6(O)C[C@@]53O[C@]24O)cc1OC` [veratridine] as the compound, how does the “Effect on NaV channels” value (NaV channels; ref [15], [17], [18]) read?
Answer: direct channel activators (agonists)

Question: With “LAPIFALLLLSGLFSLPALQHYIAANYIN-NH2 [Ta3a[E24A + K25A]]” as the compound, how does the “Efficacy (maximum response), I40ms/Ipeak” value (human NaV1.7 channel [1]) read?
Answer: 0.35 ± 0.33

Question: And the “I-V profile versus control” value (human NaV1.7 channel [2]; 30 nM analog, n = 4 cells)?
Answer: indistinguishable from control

Question: What about the “Leftward shift of V1/2” value (human NaV1.7 channel [2]; 1 μM analog, n = 7 cells) of the same compound?
Answer: −4.5 mV

Question: What about the “Leftward shift of Vrev” value (human NaV1.7 channel [2]; 1 μM analog, n = 7 cells) of the same compound?
Answer: −28 mV

Question: What about the “Reduction in peak current” value (human NaV1.7 channel [2]; 1 μM analog, n = 7 cells) of the same compound?
Answer: ~2 fold

Question: For ProTx-II: tarantula toxin, which “Effect on NaV channels” value (NaV channels; ref [20], [21]) is on record?
Answer: inhibit NaV channel currents by stabilizing S4 helices in the resting state

Question: Which “Effect on NaV channels” value (NaV channels; ref [15], [17], [18]) does the source give for batrachotoxin here?
Answer: direct channel activators (agonists)

Question: What about the “Effect on ion selectivity” value (NaV channels; ref [15], [17]) of the same compound?
Answer: alter ion selectivity

Question: Which “Effect on NaV channels” value (NaV channels; ref [20], [21]) does the source give for huwentoxin-IV here?
Answer: inhibit NaV channel currents by stabilizing S4 helices in the resting state

— publication PMC11470524, “A venom peptide-induced NaV channel modulation mechanism involving the interplay between fixed channel charges and ionic gradients” (The Journal of Biological Chemistry, 2024)
